# According to patent EP0193637A1, “Use for the improvement or treatment of various diseases associated with cerebrovascular damages” (Yoshitomi Pharmaceutical Industries, Ltd., priority 1985, dated 1986):
# Counter-ions that a name gives are not always drawn. Marks after values point to notes of the source that are not given here.
# Tests used:
# CO2-induced amnesia = experiment: CO2-induced amnesia, one trial step-through passive avoidance response; assay type: in vivo, mice; details: 5 mg/kg i.p. immediately after CO2, test 24 hours after training, up to 600 seconds, mean ± standard error, p<0.01 vs. CO2-vehicle control
# Text: (§1) Male ddY-mice, weighing 19-25 g were used. The test apparatus consisted of a two-compartment avoidance box with a large 10x23x20 cm compartment illuminated by a 40W bulb, and a. small 14x14x20 cm shock compartment, painted black, with a floor made of metal rods 6 mm apart through which a foot shock (FS, 0.25 mA, 2 seconds) could be delivered. The two compartments were separated by a guillotine door.
# (§2) The training procedure consisted of placing the mouse in the center of the large compartment. Within 20 to 50 seconds the animal entered the small compartment and was immediately given FS, and removed from the compartment. The animals were exposed to C02 for 8 seconds or given an electroconvulsive shock (ECS, 30 mA, 0.5 seconds) immediately after FS, or were injected with an amnestic agent scopolamine (SCO, 3 mg/kg i.p.) 20 minutes before FS.
# (§3) The testing procedure consisted of placing the animal in the large compartment as above and noting the latency to enter the dark compartment up to 600 seconds. The training-to-test interval was 24 hours. Compound A or vehicle (0.5 % methylcellulose) was injected intraperitoneally immediately after exposure to C02 or ECS. For the scopolamine induced amnesia model, they were injected intraperitoneally immediately after FS. Thirty mice were used per test group.
# ECS = experiment: Electroconvulsive shock (ECS) induced amnesia, one trial step-through passive avoidance response; assay type: in vivo, mice; details: ECS-induced amnesia (30 mA, 0.5 seconds); 5 mg/kg i.p. immediately after ECS; test 24 hours after training; mean ± standard error; p<0.05 vs. ECS-vehicle control
# Text: as §1, §2, §3
# [1] = system: scopolamine induced amnesia; experiment: Scopolamine induced amnesia, one trial step-through passive avoidance response; assay type: in vivo, mice; details: scopolamine (3 mg/kg i.p.) induced amnesia; 5 mg/kg i.p. immediately after foot shock; test 24 hours after training; mean ± standard error; p<0.05 vs. SCO-vehicle control
# Text: as §1, §2, §3
# normabaric hypoxia = experiment: Normobaric hypoxia, time to respiratory failure; assay type: in vivo, mice; details: 30 mg/kg i.p., nitrogen and oxygen (96:4), mean ± standard error, p<0.01 vs. control
# Method: The experiment was performed according to the method by Yasuda et al described in Arch. Int. Pharmacolodyn., vol. 233, p. 136-144 (1978).
# Three male ddY-mice were introduced into a 300 ml glass container in which circulated a current of a gas mixture of nitrogen and oxygen (96:4) at the rate of about 51/minutes. The time to respiratory failure was recorded.
# KCN-induced coma = experiment: KCN-induced coma, recovery of righting reflex; assay type: in vivo, mice; details: values are log t, 10 mg/kg i.p. 30 minutes prior to KCN 1.8 mg/kg i.v., p<0.01 vs. control
# Method: Male dd-mice were intraperitoneally injected with Compound A 30 minutes prior to the intravenous injection of 1.8 mg/kg of KCN-saline solution. The time to recovery of righting reflex, coma time, was determined.
# KCN-induced mortality = experiment: KCN-induced mortality; assay type: in vivo, mice; details: 30 mg/kg i.p. 30 minutes before KCN 2.5 mg/kg i.v.
# [2] = system: cerebral energy state in KCN-induced anoxia mice; experiment: Cerebral energy state in KCN-induced anoxia mice; assay type: in vivo; details: brain, p<0.01 vs. control; for ADP / AMP / ATP / Glucose / Lactate / P-creatine: Compound A i.p.; for ECP (Energy charge potential): ECP = ATP + 0.5xADP / ATP + ADP + AMP
# Method: Male ddY-mice weighing 22-26 g were used. Compound A was dissolved in 0.5 % methylcellulose solution and injected intraperitoneally. After administration, 2.5 mg/kg of KCN in saline was injected intravenously. The animals were frozen in liquid nitrogen at 30 or 120 seconds laterm After removing and weighing, the frozen cerebrums were powdered.
# According to the procedure by Lowry, O. H. et al described in "A flexible system of enzymatic analysis" (Academic press 1978) or by Yasuda et al described in Arch. Int. Pharmacodyn., vol. 242, p. 77-85 (1979), contents of Phosphocreatine (P-creatine), ATP, ADP, AMP, glucose and lactate in brain were determined. Concentrations (µ moles/g of brain) were calculated. Student's t-test was used in the statical analysis of the results.
# [3] = system: 2-deoxy-D-glucose uptake into rat brain; experiment: Chronic administration, 2-deoxy-D-glucose uptake into rat brain; assay type: in vivo; details: 10 mg/kg i.p. once daily for 14 days; for dpm/mg tissue dpm/µl serum: 3H-2-deoxy-D-glucose 27 hours after last administration, mean ± standard error, p<0.05 vs. control; for dpm/mg tissue dpm/µl serum (Δ%): change vs. control
# Method: 2-deoxy-D-glucose uptake into rat brain Compound A was administered intraperitoneally to male Wistar-rat once daily for 14 days. ^3H-2-deoxy-D-glucose (40 µCi/kg, i.p.) was injected to rats 27 hours after the last administration of Compound A. Fifteen minuts after the injection of 3H-2-deoxy-D-glucose, the animals were decapitated and blood from trunk was collected simultaneously. The brains were dissected into five regions. Radioactivity in the brain sample and serum was counted using Soluene-350 and toluene scintillator. […] Each value represents the mean ± standard error.
# Acute toxicity in rats = details: rat, in vivo, po, one week-observation
# Method: (§4) Compound A was orally administered to male Wistar-rats weighing about 200 g and male ddY-mice weighing 20-25 g. After one week-observation, the LD50 value (mg/kg) was measured.
# Acute toxicity in mice = details: mouse, in vivo, po, one week-observation
# Method: as §4
# [4] = 30 sec. after KCN 2.5mg/kg i.v.
# [5] = 120 sec. after KCN 2.5mg/kg i.v.
compound,measurement,setting,value
"c1csc(Cc2ccccc2OCC2CNCCO2)c1 (stereo not drawn) [Compound A, 2-(2-(2-thienylmethyl)phenoxymetyl)morpholine maleate]",Latency,CO2-induced amnesia,324.5 ± 37.1 s
same,Latency,ECS,357.5 ± 46.5 s
same,Latency,[1],169.6 ± 26.7 s
same,Survival time,normabaric hypoxia,3.87 ± 0.32 min
same,Coma time (sec.) (log t ± S.E.),KCN-induced coma,1.95 ± 0.039 sec.
same,Lethality,KCN-induced mortality,0
same,Survival animals/ animals used,KCN-induced mortality; p<0.01 vs. control,10/10**
same,ADP,[2]; [4],0.599 ± 0.020 µmol/g of wet tissue
same,AMP,[2]; [4],0.107 ± 0.009 µmol/g of wet tissue
same,ATP,[2]; [4],2.62 ± 0.07 µmol/g of wet tissue
same,Glucose,[2]; [4],1.25 ± 0.11 µmol/g of wet tissue
same,Lactate,[2]; [4],4.92 ± 0.17 µmol/g of wet tissue
same,P-creatine,[2]; [4],2.52 ± 0.13 µmol/g of wet tissue
same,ECP (Energy charge potential),[2]; [4],0.880 ± 0.004
same,ADP,[2]; [5],0.509 ± 0.023 µmol/g of wet tissue
same,AMP,[2]; [5],0.044 ± 0.005 µmol/g of wet tissue
same,ATP,[2]; [5],2.60 ± 0.02 µmol/g of wet tissue
same,Glucose,[2]; [5],0.64 ± 0.04 µmol/g of wet tissue
same,Lactate,[2]; [5],7.42 ± 0.42 µmol/g of wet tissue
same,P-creatine,[2]; [5],2.40 ± 0.09 µmol/g of wet tissue
same,ECP (Energy charge potential),[2]; [5],0.905 ± 0.004
same,dpm/mg tissue dpm/µl serum,[3]; Hippocampus,0.90 ± 0.07
same,dpm/mg tissue dpm/µl serum (Δ%),[3]; Hippocampus,+20%
same,dpm/mg tissue dpm/µl serum,[3]; Parietal cortex,1.27 ± 0.11
same,dpm/mg tissue dpm/µl serum (Δ%),[3]; Parietal cortex,+21%
same,LD50 at 168 h,Acute toxicity in rats,1710 mg/kg
same,LD50 at 168 h,Acute toxicity in mice,716 mg/kg
